In patent US11071727B2, “Therapeutic targeting of proteolytic cleavage of the mixed lineage leukemia gene product (MLL1) by taspase1 using kinase inhibitors” (Northwestern University, priority 2018, dated 2021):

Assays:
[1] = system: MLL1 cleavage by taspase1; experiment: in vitro taspase1 cleavage assay on lysates of pretreated taspase1 KO cells; assay type: biochemical, human; conditions: 293T taspase1 KO cells pretreated 30 hours with CX-4945 (3 μM) or TTP22 (10 μM), compared with DMSO control
Procedure: FIG. 5. CKII inhibitors selectively increase full-length MLL1 protein levels by decreasing the phosphorylation of MLL1 near the cleavage sites. (A) Conservation of the sequences flanking MLL1-CS2, MLL2 and TFIIA cleavage sites and phosphorylated serine and threonine residues after the cleavage sites (highlighted in red). (B) and (C) 293T cells were transfected with vector control (VT), WT, AA or DD reporter constructs of MLL1-p75 or TFIIA. Western blot was performed with anti-Flag antibody for MLL1 (p75: FL, p47: cleaved) or TFIIA (p54: FL, p47: cleaved). (D) and (E) 293T cells were transfected with WT or AA reporter constructs of MLL1-p75 or TFIIA in the presence or absence of HA-taspase1. Western blot was performed with anti-Flag antibody for MLL1 or TFIIA, or anti-HA antibody for taspase1. (F) 293T cells were infected with shRNAs against CKIIα or CKIIα′. Western blot was performed with anti-MLL1C antibody for MLL1 full-length protein levels, and CKIIα or CKIIα′ for knockdown efficiency. (G) 293T cells were treated with DMSO or 10 μM CX-4945 for 30 hours. Cells were harvested and lysed for Western blot against MLL1, MLL2 or TFIIA using β-tubulin as the loading control. […]
in vitro taspase1 cleavage assay. […] Cleavage efficiency was detected by western blot against MLL1C and TFIIA using Hsp90 as the loading control.

[2] = system: MOLM13 cells; experiment: MOLM13 human leukemia xenograft mouse model; assay type: in vivo
Procedure: FIG. 7. CKII inhibition delays the leukemia progression and improves survival of MLL-AF9 mice and MOLM13 human leukemia mice. (A) Timeline of the MLL-AF9 leukemia mouse model and CKII inhibitor treatment. Drug treatments were started at day 10 after transplantation. (B) Kaplan-Meier survival curves of secondary transplanted C57BL/6 mice after vehicle and CX-4945 treatment at day 10. Vehicle or CX-4945 (50 mg/kg or 75 mg/kg) were administered twice daily by oral gavage for a total of twenty treatments. Leukemia was confirmed at the endpoint for each transplant mouse. The number (n) indicates the number of mice in each group. The p values were calculated using the log rank test. (C) Timeline of the MOLM13 human leukemia xenograft mice. Drug treatments were started at day 5 after transplantation. (D) Kaplan-Meier survival curves of NSGS mice after vehicle and CX-4945 treatment. Vehicle or CX-4945 (50 mg/kg) were administered twice daily by oral gavage for a total of twenty treatments. Leukemia was confirmed at the endpoint for each transplant mouse by flow cytometry, H&E staining and histology analysis. […] The p value was calculated using the log rank test. […]
MLL Murine Xenograft Transplantation and Treatment. […] Mice were monitored for illness including signs of lethargy, ruffled coat, and/or hind limb paralysis at which time mice were sacrificed for analysis. […]

SMILES: O=C(O)c1ccc2c(c1)nc(Nc1cccc(Cl)c1)c1ccncc12 [CX-4945, 5-(3-chlorophenylamino)benzo[c][2,6]naphthyridine-8-carboxylic acid]
- cleavage efficiency by recombinant taspase1 protein [1]: cleavage efficiency was significantly diminished
- weight of the mice ([2]; MOLM13 human leukemia xenograft mouse model, compared with vehicle control group): did not affect the weight of the mice
- leukemia free survival ([2]; NSGS mice, 50 mg/kg twice daily by oral gavage for ten days, from day 5): significantly lengthened
